Experimental data taken from patent US10820591B2, “Substituted sulfonyl amides for controlling animal pests” (Bayer Aktiengesellschaft, priority 2016, dated 2020).

How the values were obtained:
Assay type in all cases: in vivo
Meloidogyne incognita = Meloidogyne incognita test (sand, lettuce, gall formation); conditions: Meloidogyne incognita, 336 h, 20 ppm, after 14 days; read-out: nematicidal efficacy (formation of galls)
Summary of the method: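 Vessels held sand, diluted compound solution, M. incognita egg/larvae suspension and lettuce seeds, and the plants grew for 14 days. Efficacy in % came from root gall formation: 100% means no galls, 0% means galls equal to the untreated control.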

Myzus persicae [1] = experiment: Myzus persicae oral test; conditions: 120 h, after 5 days, read-out: efficacy
Method: Myzus persicae—Oral Test [table] To produce a suitable active compound preparation, 1 part by weight of active compound is dissolved with the stated parts by weight of solvent and made up to the desired concentration with water. 50 μl of the active compound preparation are transferred into microtitre plates and made up to a final volume of 200 μl with 150 μl of IPL41 insect medium (33%+15% sugar). Subsequently, the plates are sealed with parafilm, which a mixed population of green peach aphids (Myzus persicae) within a second microtitre plate is able to puncture and imbibe the solution through it. After 5 days, the efficacy in % is determined. 100% means that all the aphids have been killed; 0% means that no aphids have been killed.

Myzus persicae [2] = experiment: Myzus persicae spray test (Chinese cabbage leaf discs); conditions: foliar, 144 h, after 6 days, read-out: efficacy
Method: Myzus persicae—Spray Test [table] To produce a suitable active compound preparation, 1 part by weight of active compound is dissolved with the specified parts by weight of solvent and made up to the desired concentration with water containing an emulsifier concentration of 1000 ppm. To produce further test concentrations, the formulation is diluted with emulsifier-containing water. Discs of Chinese cabbage leaves (Brassica pekinensis) infested by all stages of the green peach aphid (Myzus persicae) are sprayed with an active compound preparation of the desired concentration. After 6 days, the efficacy in % is determined. 100% means that all the aphids have been killed; 0% means that no aphids have been killed.

Tetranychus urticae = Tetranychus urticae spray test, OP-resistant; conditions: foliar, 144 h, bean leaf discs, after 6 days, read-out: efficacy
Method: Tetranychus urticae—Spray Test, OP-Resistant
To produce a suitable active compound preparation, 1 part by weight of active compound is dissolved with the specified parts by weight of solvent and made up to the desired concentration with water containing an emulsifier concentration of 1000 ppm. To produce further test concentrations, the formulation is diluted with emulsifier-containing water.
Discs of bean leaves (Phaseolus vulgaris) infested with all stages of the greenhouse red spider mite (Tetranychus urticae) are sprayed with an active compound preparation of the desired concentration.
After 6 days, the efficacy in % is determined. 100% means that all the spider mites have been killed; 0% means that no spider mites have been killed.

Compound | pest or weed control at 20 ppm (Meloidogyne incognita) | pest or weed control at 500 g/ha (Myzus persicae [2]) | also measured
Cc1nc(C(=O)NS(=O)(=O)c2ccccc2Cl)cn1-c1c(F)cccc1F [I-004] | 90% |  | pest or weed control at 20 ppm (Myzus persicae [1]): 70%
Cc1nc(C(=O)NS(=O)(=O)C(C)C)cn1-c1ccccc1Cl [I-006] | 100% | 90% | 
N#Cc1c(C(=O)NS(=O)(=O)c2ccccc2Cl)ncn1CCC(F)(F)F [I-007] | 70% |  | pest or weed control at 20 ppm (Myzus persicae [1]): 70%
COc1ccc(S(=O)(=O)NC(=O)c2ncn(CCC(F)(F)F)c2Br)cc1 [I-010] | 90% | 70% | pest or weed control at 100 g/ha (Myzus persicae [2]; 100 g/ha): 90%
O=C(NS(=O)(=O)Cc1ccccc1)c1ncn(CCC(F)(F)F)c1Cl [I-028] | 100% |  | pest or weed control at 500 g/ha (Tetranychus urticae): 90%
CCCn1cnc(C(=O)NS(=O)(=O)c2ccc(Cl)cc2)c1Cl [I-042] | 100% | 70% | 
CC(CC(F)(F)F)n1cnc(C(=O)NS(=O)(=O)c2ccc(Cl)cc2)c1Cl (stereo not shown) [I-073] | 100% |  | pest or weed control at 500 g/ha (Tetranychus urticae): 90%
Cc1cccc(CS(=O)(=O)NC(=O)c2ncn(CCC(F)(F)F)c2Cl)c1 [I-083] | 90% |  | pest or weed control at 500 g/ha (Tetranychus urticae): 90%
COc1ccc(Cl)c(S(=O)(=O)NC(=O)c2nc(C)n(-c3cc(Cl)cc(Cl)c3)c2Cl)c1 [I-106] | 100% |  | pest or weed control at 4 ppm (Myzus persicae [1]; 4 ppm): 100%
Cn1cc(C(=O)NS(=O)(=O)c2ccccc2Cl)nc1Cc1ccccc1Cl [I-116] | 90% | 70% | pest or weed control at 20 ppm (Myzus persicae [1]): 90%
CC(C)S(=O)(=O)NC(=O)c1cn(C)c(Cc2cccc(Cl)c2)n1 [I-120] | 100% | 90% | 
Cn1cc(C(=O)NS(=O)(=O)c2ccccc2Cl)nc1Cc1ccc(Cl)cc1 [I-121] | 70% |  | pest or weed control at 500 g/ha (Tetranychus urticae): 90%
Cn1nc(C(=O)NS(C)(=O)=O)cc1-c1cc(Cl)ccn1 [I-127] | 70% | 90% | pest or weed control at 20 ppm (Myzus persicae [1]): 70%
O=C(NS(=O)(=O)c1ccc(Cl)cc1)c1cn(Cc2ccccc2Cl)cn1 [I-158] | 100% | 90% | 
O=C(NS(=O)(=O)c1ccc(Cl)cc1)c1cn(Cc2cccc(Cl)c2)cn1 [I-160] | 70% |  | pest or weed control at 500 g/ha (Tetranychus urticae): 70%
O=C(NS(=O)(=O)c1ccccc1)c1cn(-c2cccc(Cl)c2)cn1 [I-172] | 100% |  | pest or weed control at 500 g/ha (Tetranychus urticae): 100%
O=C(NS(=O)(=O)c1ccccc1)c1cn(-c2cccc(C(F)(F)F)c2)cn1 [I-173] | 100% |  | pest or weed control at 500 g/ha (Tetranychus urticae): 90%
O=C(NS(=O)(=O)c1ccccc1)c1cn(-c2ccccc2OC(F)(F)F)cn1 [I-214] | 90% | 70% | 
O=C(NS(=O)(=O)c1c(Cl)cccc1Cl)c1cn(-c2ccccc2F)cn1 [I-220] | 100% | 70% | 
COc1ccc(Cl)c(S(=O)(=O)NC(=O)c2cn(-c3cc(F)cc(C(F)(F)F)c3)cn2)c1 [I-250] | 100% |  | pest or weed control at 100 ppm (Myzus persicae [1]): 100%
Cc1nc(C(=O)NS(=O)(=O)c2c(Cl)cccc2Cl)cn1-c1ccccc1 [I-253] | 100% | 90% | pest or weed control at 100 ppm (Myzus persicae [1]): 100%
Cc1ccc(S(=O)(=O)NC(=O)c2cn(-c3ccccc3)c(C)n2)cc1 [I-254] | 100% | 90% | pest or weed control at 100 ppm (Myzus persicae [1]): 100%
Cc1nc(C(=O)NS(=O)(=O)c2ccccc2Cl)cn1-c1cccc(Cl)c1Cl [I-264] | 90% | 70% | pest or weed control at 100 ppm (Myzus persicae [1]): 100%
COc1ccc(Cl)c(S(=O)(=O)NC(=O)c2cn(-c3ccccc3Cl)c(C)n2)c1 [I-266] | 100% |  | pest or weed control at 20 ppm (Myzus persicae [1]): 90%
Cc1nc(C(=O)NS(=O)(=O)c2ccccc2Cl)cn1-c1ccccc1Cl [I-269] | 90% | 70% | pest or weed control at 20 ppm (Myzus persicae [1]): 70%
O=C(NS(=O)(=O)c1c(Cl)cccc1Cl)c1cn(-c2cc(Cl)cc(C(F)(F)F)c2)cn1 [I-286] | 100% |  | pest or weed control at 20 ppm (Myzus persicae [1]): 90%
Cc1cc(-n2cnc(C(=O)NS(=O)(=O)c3c(Cl)cccc3Cl)c2)cc(C(F)(F)F)c1 [I-291] | 90% |  | pest or weed control at 20 ppm (Myzus persicae [1]): 90%
